# Measured values as given in US20240277713A1 (Kadmon Corporation, LLC, priority 2022, published 2024).
# How the values were obtained:
# [1] = tested on: Sprague-Dawley rats; assay: Pilot prenatal developmental toxicity study in Sprague-Dawley rats (Example 1); format: in vivo, rat
# From the text: A total of 52 Sprague-Dawley (SD) rats were used in this study.
# Observations of the animals included cageside assessments (twice daily), evaluation of clinical signs (daily from GD 6 through 20), body weights (at arrival—GD 2 or 3—and GD 6, 9, 12, 15, 18, and 20), food consumption (GD 6-20), and anatomical pathology including a uterine examination. […] All fetuses were given an external examination.
# [2] = Toxicokinetics in pregnant New Zealand White rabbits (Example 2); format: in vivo, rabbit; details: female, New Zealand White, rabbit, in vivo, po; for AUC(0-t): read-out: maternal AUC0-24; for Cmax: read-out: maternal Cmax
# Experimental: The study was conducted in two phases: Phase A was a dose range finding tolerance study with non-pregnant rabbits, and Phase B was the pilot developmental toxicity study.
# All fetuses were given the appropriate external examination.
# [3] = Toxicokinetic evaluation in pregnant rabbits (Example 4); format: in vivo, rabbit; details: for Cmax / AUC(0-t): female, New Zealand White, rabbit, plasma, po; for AUC(0-t): read-out: Mean AUC0-24 in plasma of pregnant rabbits
# Experimental: The dose levels for the treated groups were 50, 125, 225, mg base/kg/day at a dose volume of 10 mL/kg. The control group received the vehicle in the same manner as the treated groups. […] Individual doses were based on the most recent body weights.
# Observations of the animals included clinical signs, body weights, food consumption, and anatomical pathology including a uterine examination. […] All fetuses were given an external, visceral, and skeletal examination.
# [4] = tested on: Sprague-Dawley rats; assay: Fertility and early embryonic development to implantation study in Sprague-Dawley rats (Example 5)
# From the text: This study design used naive animals of both sexes, incorporated treatment of both sexes, and provided for a recovery period for the treated males based on study outcome.
# Male and female Sprague-Dawley (SD) rats were obtained from Charles River Laboratories, Raleigh, North Carolina (approximately 7 to 10 weeks of age). Using a standard, by weight, randomization procedure, 273 male and 273 female animals (weighing 229 to 497 g and 169 to 242 g, respectively, at randomization) were assigned to control, treatment, and toxicokinetic (TK) groups. The dose volume for each group was 10 mL/kg providing a dose concentration in mg/base/mL of one tenth the dose level). (In Table 24, T=Treated; U=Untreated).
# Dosing began at 11 weeks of age and 70 days prior to pairing (with untreated females) for the treated males, and 14 days prior to pairing (with untreated males) for the treated females. Dosing of the males continued through the mating and postmating period to euthanasia, while dosing of the females continued through the mating period to GD 7. Females with no evidence of mating were dosed for 7 days following completion of the mating period. Males designated for the recovery phase were dosed for 70 days, and then received a 77 day recovery period.
# Animals were observed cageside, for detailed clinical changes, body weights, food consumption, estrous cycle determinations, plasma analysis, sperm analysis, toxicokinetic analysis, and anatomical pathology including uterine and ovarian examinations.
# Cageside observations were made at least twice daily.
# Detailed clinical observations were made during treatment phases: for males, twice weekly during treatment (4 hours+/−1 hour on dosing days), and for females, daily during treatment (4 hours+/−1 hour on dosing days). During non-treatment phases (males and females), detailed clinical observations occurred weekly and also prior to the scheduled uterine examination (females) on GD 13.
# For each endpoint, treatment groups were compared to the control group using the analysis outlined in Table 25. Data for some endpoints, as indicated, were transformed by an arcsin-square root transformation prior to conducting the specified analysis.
# [5] = tested on: dogs; assay: General toxicology studies in dogs; format: in vivo, dog
# [6] = Pharmacokinetics in chronic GVHD patients; format: in vivo, human
# [7] = Pharmacokinetics in healthy subjects; format: in vivo, human
# [8] = target: CYP3A4, CYP2C8, CYP2D6, and UGT1A9 (Homo sapiens, UniProt P08684); assay: Metabolism in vitro; format: in vitro ADME
# [9] = tested on: CYP3A4, CYP2C8, CYP2D6, and UGT1A9; assay: Metabolism in vitro; format: in vitro ADME
# [10] = Clinical drug interaction studies, effects of other drugs on belumosudil; format: in vivo, human; details: healthy subjects
# [11] = target: P-gp (Homo sapiens, UniProt P08183); assay: Transporter systems in vitro: P-gp; format: in vitro ADME
# [12] = target: CYP2C19 (Homo sapiens, UniProt P33261); assay: Enzyme systems in vitro: CYP2C19; format: in vitro ADME
# [13] = tested on: human peripheral blood lymphocytes (HPBL); assay: in vitro chromosome aberration assay; format: cell-based
# [14] = 50 mg base/kg, GD 18, belumosudil 50 mg base/kg oral
# [15] = 50 mg/kg/day, GD 6, belumosudil 50 mg base/kg oral
# [16] = 125 mg/kg/day, GD 6, belumosudil 125 mg base/kg oral
# [17] = 125 mg/kg/day, GD 18, belumosudil 125 mg base/kg oral
# [18] = 225 mg/kg/day, GD 6, belumosudil 225 mg base/kg oral
# [19] = 225 mg/kg/day, GD 18, belumosudil 225 mg base/kg oral
# [20] = single oral dose of radiolabeled belumosudil
# [21] = coadministration of rabeprazole
# Sequence of P-gp (P08183 whole entry): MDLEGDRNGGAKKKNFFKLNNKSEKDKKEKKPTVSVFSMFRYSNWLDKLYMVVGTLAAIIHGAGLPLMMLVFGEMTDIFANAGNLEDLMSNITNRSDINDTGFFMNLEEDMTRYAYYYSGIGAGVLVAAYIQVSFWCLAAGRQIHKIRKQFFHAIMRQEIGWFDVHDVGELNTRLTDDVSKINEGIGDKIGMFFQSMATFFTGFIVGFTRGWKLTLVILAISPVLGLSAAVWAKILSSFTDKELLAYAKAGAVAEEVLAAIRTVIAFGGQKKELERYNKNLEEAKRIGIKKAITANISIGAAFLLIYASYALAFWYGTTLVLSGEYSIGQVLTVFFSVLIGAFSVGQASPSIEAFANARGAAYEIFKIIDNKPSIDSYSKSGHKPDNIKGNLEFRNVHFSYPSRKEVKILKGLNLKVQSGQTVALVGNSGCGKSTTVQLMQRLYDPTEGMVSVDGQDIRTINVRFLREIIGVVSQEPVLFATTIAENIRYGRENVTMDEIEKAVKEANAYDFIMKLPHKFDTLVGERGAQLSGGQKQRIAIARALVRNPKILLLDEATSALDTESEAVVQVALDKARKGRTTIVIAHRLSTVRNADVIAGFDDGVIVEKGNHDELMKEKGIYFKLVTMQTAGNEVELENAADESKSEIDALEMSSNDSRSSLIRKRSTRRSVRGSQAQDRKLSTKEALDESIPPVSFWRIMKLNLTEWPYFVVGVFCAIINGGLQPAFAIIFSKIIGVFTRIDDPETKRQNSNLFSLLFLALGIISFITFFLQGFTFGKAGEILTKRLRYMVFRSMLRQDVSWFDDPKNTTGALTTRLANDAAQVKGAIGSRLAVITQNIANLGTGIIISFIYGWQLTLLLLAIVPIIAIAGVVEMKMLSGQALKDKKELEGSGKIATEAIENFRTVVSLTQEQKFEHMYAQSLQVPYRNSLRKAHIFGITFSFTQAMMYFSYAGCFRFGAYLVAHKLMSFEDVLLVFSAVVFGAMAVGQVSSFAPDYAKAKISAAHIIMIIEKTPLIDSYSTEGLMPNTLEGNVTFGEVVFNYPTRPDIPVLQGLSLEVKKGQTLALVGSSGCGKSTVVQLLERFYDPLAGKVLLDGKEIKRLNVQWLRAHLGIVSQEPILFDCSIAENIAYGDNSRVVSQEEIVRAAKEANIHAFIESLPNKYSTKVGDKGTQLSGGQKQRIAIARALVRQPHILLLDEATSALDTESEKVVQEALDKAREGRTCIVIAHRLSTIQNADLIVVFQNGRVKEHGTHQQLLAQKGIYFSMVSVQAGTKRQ
# Sequence of CYP2C19 (P33261 whole entry): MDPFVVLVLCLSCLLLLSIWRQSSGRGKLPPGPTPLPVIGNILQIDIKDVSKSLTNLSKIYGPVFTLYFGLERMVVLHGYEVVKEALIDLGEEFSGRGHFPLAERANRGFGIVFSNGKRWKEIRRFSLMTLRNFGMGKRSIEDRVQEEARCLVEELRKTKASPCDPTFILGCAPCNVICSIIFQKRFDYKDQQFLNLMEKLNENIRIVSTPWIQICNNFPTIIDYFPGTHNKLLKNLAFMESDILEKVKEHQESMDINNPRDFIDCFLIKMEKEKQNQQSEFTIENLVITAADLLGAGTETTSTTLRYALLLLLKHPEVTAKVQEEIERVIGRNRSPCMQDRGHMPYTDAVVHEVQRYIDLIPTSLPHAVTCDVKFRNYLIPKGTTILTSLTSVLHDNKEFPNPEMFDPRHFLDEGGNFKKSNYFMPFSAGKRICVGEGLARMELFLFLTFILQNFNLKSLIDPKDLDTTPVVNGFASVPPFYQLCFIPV
# Sequence of CYP3A4, CYP2C8, CYP2D6, and UGT1A9 (Homo sapiens, UniProt P08684) (P08684 2-503): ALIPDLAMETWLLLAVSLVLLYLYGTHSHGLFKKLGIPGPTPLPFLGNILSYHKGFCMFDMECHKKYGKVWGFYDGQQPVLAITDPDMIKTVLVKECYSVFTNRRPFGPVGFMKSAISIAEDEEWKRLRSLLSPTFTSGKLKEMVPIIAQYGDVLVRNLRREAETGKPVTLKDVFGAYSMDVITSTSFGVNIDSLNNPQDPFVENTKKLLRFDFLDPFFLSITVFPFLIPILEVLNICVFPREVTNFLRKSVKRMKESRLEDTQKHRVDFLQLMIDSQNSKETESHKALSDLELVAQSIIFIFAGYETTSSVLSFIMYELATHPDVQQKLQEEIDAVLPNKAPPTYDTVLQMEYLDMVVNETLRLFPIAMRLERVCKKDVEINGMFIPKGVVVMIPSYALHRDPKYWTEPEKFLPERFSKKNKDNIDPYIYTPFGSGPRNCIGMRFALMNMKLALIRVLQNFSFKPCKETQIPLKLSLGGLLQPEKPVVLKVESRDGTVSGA
smiles,measurement,setting,value
"CC(C)NC(=O)COc1cccc(-c2nc(Nc3ccc4[nH]ncc4c3)c3ccccc3n2)c1 [belumosudil, 2-{3-[4-(1H-indazol-5-ylamino)-2-quinazolinyl]phenoxy}-N-(propan-2-yl) acetamide]",Mean post-implantation loss,[1]; 25 mg base/kg/day,4.00 % per litter
same,Mean viable litter size,[1]; 25 mg base/kg/day,13.2
same,combined mean fetal body weight (males and females),[1]; 25 mg base/kg/day,4.37 g
same,mean fetal body weight (female fetuses),[1]; 25 mg base/kg/day,4.19 g
same,Mean post-implantation loss,[1]; 50 mg base/kg/day,11.62 % per litter
same,Mean viable litter size,[1]; 50 mg base/kg/day,11.6
same,combined mean fetal body weight (males and females),[1]; 50 mg base/kg/day,4.50 g
same,litter incidence of external fetal malformations,[1]; 50 mg base/kg/day,40%
same,mean fetal body weight (female fetuses),[1]; 50 mg base/kg/day,4.39 g
same,Mean post-implantation loss,[1]; 150 mg base/kg/day,4.51 % per litter
same,Mean viable litter size,[1]; 150 mg base/kg/day,12.2
same,combined mean fetal body weight (males and females),[1]; 150 mg base/kg/day,4.22 g
same,litter incidence of external fetal malformations,[1]; 150 mg base/kg/day,20%
same,maternal toxicity,[1]; 150 mg base/kg/day,moderate
same,mean body weights,[1]; 150 mg base/kg/day,reduced throughout gestation
same,mean fetal body weight (female fetuses),[1]; 150 mg base/kg/day,4.18 g
same,Mean post-implantation loss,[1]; 300 mg base/kg/day,24.51 % per litter
same,Mean viable litter size,[1]; 300 mg base/kg/day,10.0
same,clinical signs,[1]; 300 mg base/kg/day,"unkempt and/or thin appearance, and hunched posture"
same,combined mean fetal body weight (males and females),[1]; 300 mg base/kg/day,3.42 g
same,litter incidence of external fetal malformations,[1]; 300 mg base/kg/day,25%
same,"maternal, embryo, and fetal toxicity",[1]; 300 mg base/kg/day,excessive
same,"mean body weight values, body weight gains and food consumption",[1]; 300 mg base/kg/day,adversely affected at every interval
same,mean fetal body weight (female fetuses),[1]; 300 mg base/kg/day,3.34 g
same,maternal toxicity,[1]; 25 and 50 mg base/kg/day,slight
same,mean body weight gains and food consumption,"[1]; 25 and 50 mg base/kg/day, GD 6-9, 6-18, 6-20",slightly reduced
same,maternal necropsy findings,[1]; any treated group,No adverse maternal necropsy findings
same,"doses at which fetal malformations were observed (absence of anus and tail, omphalocele, dome shaped head)","[1]; pilot study, pregnant rats, oral",≥ 50 mg/kg/day
same,AUC(0-t),[2]; 50 mg/kg/day,2480 ng·h/mL
same,Cmax,[2]; 50 mg/kg/day,621 ng/mL
same,AUC(0-t),[2]; 250 mg/kg/day,15600 ng·h/mL
same,Cmax,[2]; 250 mg/kg/day,2100 ng/mL
same,Cmax,[3]; [14],437 ng/mL
same,AUC(0-t),[3]; [14],1590 ng·h/mL
same,Cmax,[3]; [15],919 ng/mL
same,AUC(0-t),[3]; [15],3870 ng·h/mL
same,Cmax,[3]; [16],3030 ng/mL
same,AUC(0-t),[3]; [16],21400 ng·h/mL
same,Cmax,[3]; [17],1670 ng/mL
same,AUC(0-t),[3]; [17],9290 ng·h/mL
same,Cmax,[3]; [18],4140 ng/mL
same,AUC(0-t),[3]; [18],55700 ng·h/mL
same,Cmax,[3]; [19],2580 ng/mL
same,AUC(0-t),[3]; [19],23500 ng·h/mL
same,accumulation after multiple dosing of belumosudil,[3]; pregnant rabbits,no apparent accumulation
same,NOAEL for female reproductive performance and fertility,[4]; female rats,275 mg base/kg/day
same,"dose with adverse findings in female rats (increased pre- or post-implantation loss, decreased number of viable embryos)","[4]; female, Sprague-Dawley, rat, in vivo",275 mg/kg/day
same,NOAEL for general toxicity endpoints,[4]; male and female rats,50 mg base/kg/day
same,NOAEL for male reproductive performance and fertility,[4]; male rats,150 mg base/kg/day
same,dose in male rats with abnormal sperm findings and testes/epididymis organ changes,"[4]; male, Sprague-Dawley, rat, in vivo, po",275 mg/kg/day
same,"reproductive and fertility indices, treated females","[4]; rat, in vivo",unaffected
same,NOAEL for ovarian and uterine parameters,[4]; treated females,150 mg base/kg/day
same,dose with spermatozoa degeneration,[5],35 mg/kg/day
same,mean (% CV) steady-state AUC,[6]; 200 mg once daily,22700 (48%) h·ng/mL
same,mean (% CV) steady-state Cmax,[6]; 200 mg once daily,2390 (44%) ng/mL
same,"pharmacokinetics with regard to age, sex, weight, or mild to moderate renal impairment","[6]; age 18 to 77 years, weight 38.6 to 143 kg",No clinically significant differences
same,Tmax,"[6]; human, in vivo, oral, 200 mg once daily or twice daily, read-out: Median Tmax at steady state",1.26 to 2.53 h
same,mean elimination half-life,"[6]; patients, % CV 39%",19 h
same,clearance,"[6]; patients, % CV 46%",9.83 L/h
same,Tmax,"[7]; human, in vivo, oral, single dose, read-out: delay of median Tmax with high-fat and high-calorie meal",0.5 h
same,Vd,"[7]; human, in vivo, single dose, geo CV % 67.7%, read-out: geometric mean volume of distribution",184 L
same,increase in AUC with high-fat and high-calorie meal compared to fasted state,[7]; single dose,2 times
same,increase in Cmax with high-fat and high-calorie meal compared to fasted state,[7]; single dose,2.2 times
same,mean (% CV) bioavailability,[7]; single dose,64% (17%)
same,radioactivity recovered in feces,[7]; [20],85%
same,radioactivity recovered in urine,[7]; [20],less than 5%
same,recovered in feces as unchanged,[7]; [20],30%
same,primary metabolizing enzyme,[8],primarily metabolized by CYP3A4
same,minor metabolizing enzymes,[9],"to a lesser extent by CYP2C8, CYP2D6, and UGT1A9"
same,effect on belumosudil exposure,[10]; coadministered with itraconazole,no clinically meaningful effect
same,decrease in belumosudil AUC,[10]; coadministration of omeprazole,47%
same,decrease in belumosudil Cmax,[10]; coadministration of omeprazole,68%
same,decrease in belumosudil AUC,[10]; [21],80%
same,decrease in belumosudil Cmax,[10]; [21],87%
same,decrease in belumosudil AUC,[10]; coadministration of rifampin,72%
same,decrease in belumosudil Cmax,[10]; coadministration of rifampin,59%
same,P-gp substrate status,[11],substrate of P-gp
same,P-gp inhibition,[11]; clinically relevant concentrations,inhibits
same,CYP2C19 inhibition,[12],inhibitor
same,"genotoxicity, chromosome aberration assay",[13],not genotoxic
